Laboratory results published in patent US11919898B2, “Crystal form of azaindole derivative and use thereof” (Wuxi Life Fountain Biotech Co., Ltd, priority 2020, dated 2024).
Where two headings read alike, the source gives them in different places.

How the values were obtained:
[1] = Solid stability test (high temperature, high humidity, light, accelerated); format: physicochemical
Experimental: High Performance Liquid Chromatography (HPLC) of the Present Invention [table] Experimental method: 12 parallel samples of the crystal form A of the compound of formula (II) were weighed in an amount of about 1 g each. Each sample was fed to a double-layer LDPE bag, and each layer of the LDPE bag was tied and sealed. […] The photostability experiment was carried out as described in the Chinese Pharmacopoeia and ICH Q1B. The samples were irradiated with visible light and UV light.

human FGFR1 = biological target: T1, human FGFR1 (Homo sapiens, UniProt P11362); assay: 33P isotope-labeled kinase activity assay, FGFR1; format: biochemical; details: ATP 5 μM
T1 construct: purchased Invitrogen PV3146
Experimental: Test procedure: At room temperature, the test compound was dissolved in DMSO to prepare a 10 mM solution for use. The substrate was dissolved in freshly prepared buffer, and the test kinase was added and mixed well. A solution of the test compound in DMSO was added to the mixed reaction solution using an acoustic technology (Echo550). […] After 15 min of incubation, ^33P-ATP (with an activity of 0.01 μCi/nL, the corresponding concentration is listed in Table 18) was added to start the reaction. […] The kinase activity data were expressed by the comparison of the kinase activity in the presence of the test compound with the kinase activity of the blank group (containing only DMSO), and an IC50 value was obtained by curve fitting with Prism4 software (GraphPad).

human c-Met = biological target: T2, human c-Met (Homo sapiens, UniProt P08581); assay: 33P isotope-labeled kinase activity assay, c-Met; format: biochemical; details: ATP 10 μM
T2 construct: purchased Invitrogen PV3143
Experimental: The IC50 value was tested by ^33P isotope-labeled kinase activity assay (Reaction Biology Corp) to evaluate the inhibition of the test compounds on human FGFR1, FGFR4, and c-Met.
Buffer: 20 mM Hepes (pH 7.5), 10 mM MgCl2, 1 mM EGTA, 0.02% Brij35, 0.02 mg/ml BSA, 0.1 mMNa3VO4, 2 mM DTT, and 1% DMSO.
Test procedure: At room temperature, the test compound was dissolved in DMSO to prepare a 10 mM solution for use. The substrate was dissolved in freshly prepared buffer, and the test kinase was added and mixed well. A solution of the test compound in DMSO was added to the mixed reaction solution using an acoustic technology (Echo550). The compound concentration in the reaction solution was 1 μM, 0.25 μM, […], 0.977 nM, 0.244 nM, 0.061 nM, 0.0153 nM, 0.00381 nM, or 10 μM, 2.50 μM, 0.62 μM, 0.156 μM, 39.1 nM, 9.8 nM, 2.4 nM, 0.61 nM, 0.15 nM, and 0.038 nM, respectively. After 15 min of incubation, ^33P-ATP (with an activity of 0.01 μCi/nL, the corresponding concentration is listed in Table 18) was added to start the reaction. The supplier's catalogue number, lot number, and concentration in the reaction solution of FGFR1, FGFR4, c-Met, and substrates thereof are listed in Table 18. […]

[2] = Pharmacokinetic evaluation in rats (intravenous and oral); format: in vivo, male SD rats
Experimental: For agents for intravenous administration, 30% (v/v) PEG400 in purified water was as a vehicle. An appropriate amount of compound was accurately weighed into a glass flask, 30 vol % of PEG400 of the container volume was slowly added to the container with stirring, and then the remaining 70 vol % of pure water was added to make up to the final volume and stirred continuously until a clear solution was obtained. The solution was filtered through a […] filter membrane, and stored at room temperature for later use. The agents for intravenous administration were formulated on the day of administration, and injected into male SD rats via tail vein (fasted overnight before administration) at a dose of 0.5 mg/kg. Approximately 0.18 mL of blood was collected from the jugular vein or tail vein at 0.0833, 0.25, 0.5, 1.0, 2.0, 4.0, 8.0 and 24 hrs after intravenous administration. The corresponding test compound in the vehicle was administered by gavage to male SD rats (fasted overnight before administration) at a dose of 5 mg/kg. The experimental conditions are detailed in Table 20. Blood was collected from the jugular or tail vein at 0.0833, 0.25, 0.5, 1.0, 2.0, 4.0, 6.0, 8.0 and 24 hrs after oral administration. The blood was fed to an anticoagulation tube supplemented with EDTA-K2, and centrifuged to separate plasma. The plasma concentrations were determined by LC-MS/MS, and the relevant pharmacokinetic parameters were calculated by the linear logarithmic trapezoid method of non-compartmental model using WinNonlm™ Version 6.3 (Pharsight, Mountain View, CA) pharmacokinetic software.

[3] = Hygroscopicity test by dynamic vapor sorption (DVS); format: physicochemical
Experimental: Dynamic Vapor Sorption (DVS) of the Present Invention • Instrument model: SMS DVS Intrinsic Dynamic Vapor Sorption Analyzer • Test method: A sample (10-30 mg) is tested in a DVS sample pan. Detailed DVS Parameters: • Temperature: 25° C. • Equilibration: dm/dt=0.002%/min (Minimum: 10 min, Maximum: 180 min) • RH (%) test interval: 10 (0-90%), 5 (90-95%) • RH (%) test interval range: 0-95-0 Hygroscopicity evaluations are classified as follows: [table] Note: AW % represents the hygroscopic weight gain of the test product at 25° C./80% RH. Experimental Method: • 10-30 mg of the crystal form A of the compound of Formula (II) was placed in the DVS sample pan and tested. Experimental Method: • 10-30 mg of the crystal form G of the compound of Formula (III) was placed in the DVS sample pan and tested. Experimental Method: • 10-30 mg of the crystal form J of the compound of Formula (IV) was placed in the DVS sample pan and tested.

[4] = Acceleration experiment (40° C./relative humidity 75%, open), 1 month
[5] = Acceleration experiment (40° C./relative humidity 75%, open), 2 month
[6] = Acceleration experiment (40° C./relative humidity 75%, open), 3 month
[7] = High humidity (room temperature/relative humidity 92.5%, open), Day 5
[8] = High humidity (room temperature/relative humidity 92.5%, open), Day 10
[9] = High humidity (room temperature/relative humidity 92.5%, open), Day 30
[10] = High temperature (60° C., open), Day 5
[11] = High temperature (60° C., open), Day 10
[12] = High temperature (60° C., open), Day 30
[13] = Light irradiation (1.2 × 10^6 Lux·hr / near ultraviolet 200 w·hr/m^2, open 10 days), light irradiation sample
[14] = Light irradiation test, sample in the dark
[15] = intravenous, 0.5 mg/kg, male SD rats
[16] = oral (gavage), 5 mg/kg, male SD rats
[17] = rat, plasma, PO, 5 mg/kg, male SD rats (table title says mice)

T1 sequence (P11362 22-822): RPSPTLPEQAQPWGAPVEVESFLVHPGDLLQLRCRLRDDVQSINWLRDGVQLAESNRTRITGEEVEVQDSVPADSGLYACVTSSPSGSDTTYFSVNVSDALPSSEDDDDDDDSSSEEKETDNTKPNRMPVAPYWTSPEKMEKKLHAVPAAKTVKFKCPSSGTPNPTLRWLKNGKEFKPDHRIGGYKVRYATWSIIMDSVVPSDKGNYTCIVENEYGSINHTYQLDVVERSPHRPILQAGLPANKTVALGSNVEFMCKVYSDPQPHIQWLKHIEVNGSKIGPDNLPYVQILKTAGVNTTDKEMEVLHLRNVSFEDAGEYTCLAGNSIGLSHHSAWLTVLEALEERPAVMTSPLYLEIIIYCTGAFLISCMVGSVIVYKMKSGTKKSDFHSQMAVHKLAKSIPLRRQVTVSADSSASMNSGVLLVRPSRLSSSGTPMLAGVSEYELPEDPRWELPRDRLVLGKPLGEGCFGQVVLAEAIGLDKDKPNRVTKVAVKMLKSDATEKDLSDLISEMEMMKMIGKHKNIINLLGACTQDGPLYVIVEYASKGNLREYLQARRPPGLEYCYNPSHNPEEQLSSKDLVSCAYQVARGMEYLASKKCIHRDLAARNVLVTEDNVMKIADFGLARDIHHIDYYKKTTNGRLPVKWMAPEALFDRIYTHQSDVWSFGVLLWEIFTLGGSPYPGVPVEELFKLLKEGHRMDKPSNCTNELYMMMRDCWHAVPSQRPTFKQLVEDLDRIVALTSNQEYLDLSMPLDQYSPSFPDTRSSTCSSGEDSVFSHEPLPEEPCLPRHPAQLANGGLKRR
T2 sequence (P08581 25-1390): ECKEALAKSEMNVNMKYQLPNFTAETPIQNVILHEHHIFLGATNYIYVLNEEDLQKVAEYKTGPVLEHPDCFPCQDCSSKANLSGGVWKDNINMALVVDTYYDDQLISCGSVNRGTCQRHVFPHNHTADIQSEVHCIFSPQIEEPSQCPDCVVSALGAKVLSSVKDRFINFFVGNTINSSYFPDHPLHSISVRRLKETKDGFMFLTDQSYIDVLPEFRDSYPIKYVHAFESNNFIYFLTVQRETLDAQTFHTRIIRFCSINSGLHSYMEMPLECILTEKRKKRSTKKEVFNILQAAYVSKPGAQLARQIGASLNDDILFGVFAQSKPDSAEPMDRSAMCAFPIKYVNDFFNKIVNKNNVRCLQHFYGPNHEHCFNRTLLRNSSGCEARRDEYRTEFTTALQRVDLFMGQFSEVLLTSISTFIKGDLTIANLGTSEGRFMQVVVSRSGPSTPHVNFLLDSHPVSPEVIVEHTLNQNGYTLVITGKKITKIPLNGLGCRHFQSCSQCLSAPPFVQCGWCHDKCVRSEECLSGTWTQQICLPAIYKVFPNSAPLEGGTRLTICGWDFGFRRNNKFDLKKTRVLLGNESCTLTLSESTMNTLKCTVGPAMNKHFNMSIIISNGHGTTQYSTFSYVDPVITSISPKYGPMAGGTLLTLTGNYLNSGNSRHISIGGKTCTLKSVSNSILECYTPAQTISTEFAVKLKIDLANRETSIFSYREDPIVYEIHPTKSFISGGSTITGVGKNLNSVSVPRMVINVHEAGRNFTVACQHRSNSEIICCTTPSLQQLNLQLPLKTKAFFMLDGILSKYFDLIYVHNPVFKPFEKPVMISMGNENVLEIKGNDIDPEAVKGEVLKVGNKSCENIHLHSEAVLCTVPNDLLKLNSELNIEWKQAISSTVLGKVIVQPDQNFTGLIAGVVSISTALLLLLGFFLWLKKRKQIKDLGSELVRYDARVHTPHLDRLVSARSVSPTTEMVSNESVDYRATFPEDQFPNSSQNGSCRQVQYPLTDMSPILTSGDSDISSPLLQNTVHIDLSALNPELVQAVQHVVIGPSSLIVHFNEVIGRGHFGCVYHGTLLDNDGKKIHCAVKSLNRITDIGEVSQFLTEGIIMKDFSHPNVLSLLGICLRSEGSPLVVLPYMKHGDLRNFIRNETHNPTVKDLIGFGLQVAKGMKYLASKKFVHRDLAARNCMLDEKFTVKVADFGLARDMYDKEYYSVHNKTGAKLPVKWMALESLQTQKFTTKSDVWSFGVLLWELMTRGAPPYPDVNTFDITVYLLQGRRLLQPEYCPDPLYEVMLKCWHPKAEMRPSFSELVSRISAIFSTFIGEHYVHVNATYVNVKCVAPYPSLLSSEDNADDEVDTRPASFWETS

Content (%) [1, 4]: 99.7% | Total impurity (%) [1, 4]: 0.67% | Content (%) [1, 5]: 99.7% | Total impurity (%) [1, 5]: 0.69% | Content (%) [1, 6]: 99.9% | Total impurity (%) [1, 6]: 0.68% | Content (%) ([1]; Day 0): 99.8% | Total impurity (%) ([1]; Day 0): 0.71% | Content (%) [1, 7]: 99.6% | Total impurity (%) [1, 7]: 0.75% | Content (%) [1, 8]: 99.8% | Total impurity (%) [1, 8]: 0.71% | Content (%) [1, 9]: 98.9% | Total impurity (%) [1, 9]: 0.65% | Content (%) [1, 10]: 99.6% | Total impurity (%) [1, 10]: 0.78% | Content (%) [1, 11]: 99.9% | Total impurity (%) [1, 11]: 0.76% | Content (%) [1, 12]: 98.5% | Total impurity (%) [1, 12]: 0.80% | Content (%) [1, 13]: 99.8% | Total impurity (%) [1, 13]: 0.76% | Content (%) [1, 14]: 99.8% | Total impurity (%) [1, 14]: 0.79% | IC50 (human FGFR1): 0.2 nM | IC50 (human c-Met): 15.9 nM | Drug exposure [2, 15]: high level | Volume of distribution [2, 15]: high | clearance [2, 15]: moderately low | half-life [2, 15]: moderate | Oral exposure [2, 16]: high level | Peak time [2, 16]: rapid | AUC(0-t) ([2]; rat, plasma, IV, 0.5 mg/kg, male SD rats (table title says mice)): 1.01 µM·h | clearance ([2]; rat, plasma, IV, 0.5 mg/kg, male SD rats (table title says mice), read-out: Cl): 18.4 mL/min/kg | half-life ([2]; rat, plasma, IV, 0.5 mg/kg, male SD rats (table title says mice), read-out: T1/2 (converted)): 79.2 min | Vd ([2]; rat, plasma, IV, 0.5 mg/kg, male SD rats (table title says mice), read-out: Vdss): 1.87 L/kg | AUC(0-t) [2, 17]: 5.18 µM·h | Cmax [2, 17]: 1960 nM | Tmax [2, 17]: 30 min | ΔW, hygroscopic weight gain ([3]; 25° C. and 80% RH, DVS): 0.3710% | Classification of hygroscopicity ([3]; 25° C./80% RH): slightly hygroscopic
Compound: COc1cc(OC)c(F)c(Cc2c[nH]c3ncc(-c4cnn(CCO)c4)cc23)c1F.Cl
Solid stability in words ([1]; accelerated conditions and affecting factors): very stable, and no obvious unknown impurities are formed | Oral exposure level compared with other salt crystal forms [2, 16]: higher than that of the crystal form G of the compound of Formula (III), and the crystal form J of the compound of Formula (III)
